Patent US12479848B2, “Substituted fused heteroaromatic bicyclic compounds as kinase inhibitors and the use thereof” (IMPACT THERAPEUTICS (SHANGHAI), INC, priority 2019, dated 2025)
Read-outs that look alike come from different tables or passages of the source. Each block holds one molecule with its values, some of them ahead of it.

Experiments:
[1] = tested on: human colon cancer cell LoVo; assay: MTT proliferation assay, LoVo; assay type: cell-based; details: for IC50: Homo sapiens, LoVo, 96 h, 4 days, read-out: IC50 (nM), inhibition of proliferation of LoVo
Protocol: The cells were seeded into 96-well cell culture plate with a density of 2000/4000 cells per well and incubated overnight in a 5% CO2 incubator at 37° C. […] 5 μL diluent of each concentration was added to 120 μL of medium (25 times diluted) and mixed by shaking. The overnight cell plates were taken and the culture medium was removed, 195 μL of fresh medium was added to each well, and 5 μL of diluted medium containing the corresponding concentration of the test compound was added respectively (the final concentration of DMSO is 1%), and the culture plate was then placed in a 5% CO2 incubator at 37° C. for 4 days. After removing the original solution, 100 μL of fresh serum-free DMEM medium containing MTT (0.5 mg/mL) was added to each well, the culture was continued. […] Cell viability (%)=(ODcompound−ODbackground)/(ODDMSO-ODbackground)×100. GraphPad Prism 6.0 was used to analyze the data. The inhibitory activity of compounds on cell proliferation was plotted based on cell viability and the logarithm of compound concentration.

[2] = tested on: human lung cancer cell NCI-H460; assay: MTT proliferation assay, NCI-H460; assay type: cell-based; details: for IC50: Homo sapiens, NCI-H460, 96 h, 4 days, read-out: IC50 (nM), inhibition of proliferation of NCI-H460
Protocol: The cells were seeded into 96-well cell culture plate with a density of 2000/4000 cells per well and incubated overnight in a 5% CO2 incubator at 37° C. […] diluent of each concentration was added to 120 μL of medium (25 times diluted) and mixed by shaking. The overnight cell plates were taken and the culture medium was removed, 195 μL of fresh medium was added to each well, and 5 μL of diluted medium containing the corresponding concentration of the test compound was added respectively (the final concentration of DMSO is 1%), and the culture plate was then placed in a 5% CO2 incubator at 37° C. for 4 days. After removing the original solution, 100 μL of fresh serum-free DMEM medium containing MTT (0.5 mg/mL) was added to each well, the culture was continued. […] Cell viability (%)=(ODcompound−ODbackground)/(ODDMSO−ODbackground)×100. GraphPad Prism 6.0 was used to analyze the data. The inhibitory activity of compounds on cell proliferation was plotted based on cell viability and the logarithm of compound concentration.

[3] = tested on: human prostate cancer cell DU145; assay: MTT proliferation assay, DU145; assay type: cell-based; details: for IC50: Homo sapiens, DU-145, 96 h, 4 days, read-out: IC50 (nM), inhibition of proliferation of DU145
Protocol: The cells were digested by trypsinase and centrifuged at 800 rpm for 5 minutes, the supernatant was discarded, and the residual was resuspended with fresh medium (DMEM medium+10% FBS+non-essential amino acid) and counted. The cells were seeded into 96-well cell culture plate with a density of 2000 cells per well and incubated overnight in a 5% CO2 incubator at 37° C. […] 5 μL of each concentration was added to 120 μL of medium (25 times diluted) and mixed by shaking. The overnight cell plates were taken and the culture medium was removed, 195 μL of fresh medium was added to each well, and 5 μL of diluted medium containing the corresponding concentration of the test compound was added respectively (the final concentrations of compounds are shown in Table 3, the final concentration of DMSO is 1%), and the culture plate was then placed in a 5% CO2 incubator at 37° C. for 4 days. After removing the original solution, 100 μL of fresh serum-free DMEM medium containing MTT (0.5 mg/mL) was added to each well, the culture was continued. […] GraphPad Prism 6.0 was used to analyze the data. The inhibitory activity of compounds on cell proliferation was plotted based on cell viability and the logarithm of compound concentration. Cell viability %=(ODcompound−ODbackground)/(ODDMSO−ODbackground)×100.

[4] = target: T1, ATR/ATRIP enzyme (Homo sapiens, UniProt Q13535); assay: ATR enzyme activity experiment (HTRF); assay type: biochemical; details: for IC50: HTRF, p53 substrate, 30 minutes at room temperature
T1 construct: purchased Eurofins 14-953
Protocol: The test compound was diluted to a 4× final concentration with reaction buffer (25 mM HEPES (pH8.0), 10 mM MnCl2, 1% glycerol, 0.01% Brij-35, 5 mM DTT and 0.1% BSA). […] The mixture was centrifuged at 1000 rpm for 1 minute, and reacted at room temperature protected from light for 30 minutes. Then 5 μL of EDTA stop solution (250 mM) was added to stop the reaction. […] Data were analyzed using GraphPad Prism6.0, and fitted using the curve equation: Y=Bottom+(Top−Bottom)/(1+10^((Log IC50−X)*HillSlope)) and IC50 values were calculated.

[5] = read-out: IC50 (nM), inhibitory effects on ATR kinase activity

T1 sequence (Q13535 whole entry): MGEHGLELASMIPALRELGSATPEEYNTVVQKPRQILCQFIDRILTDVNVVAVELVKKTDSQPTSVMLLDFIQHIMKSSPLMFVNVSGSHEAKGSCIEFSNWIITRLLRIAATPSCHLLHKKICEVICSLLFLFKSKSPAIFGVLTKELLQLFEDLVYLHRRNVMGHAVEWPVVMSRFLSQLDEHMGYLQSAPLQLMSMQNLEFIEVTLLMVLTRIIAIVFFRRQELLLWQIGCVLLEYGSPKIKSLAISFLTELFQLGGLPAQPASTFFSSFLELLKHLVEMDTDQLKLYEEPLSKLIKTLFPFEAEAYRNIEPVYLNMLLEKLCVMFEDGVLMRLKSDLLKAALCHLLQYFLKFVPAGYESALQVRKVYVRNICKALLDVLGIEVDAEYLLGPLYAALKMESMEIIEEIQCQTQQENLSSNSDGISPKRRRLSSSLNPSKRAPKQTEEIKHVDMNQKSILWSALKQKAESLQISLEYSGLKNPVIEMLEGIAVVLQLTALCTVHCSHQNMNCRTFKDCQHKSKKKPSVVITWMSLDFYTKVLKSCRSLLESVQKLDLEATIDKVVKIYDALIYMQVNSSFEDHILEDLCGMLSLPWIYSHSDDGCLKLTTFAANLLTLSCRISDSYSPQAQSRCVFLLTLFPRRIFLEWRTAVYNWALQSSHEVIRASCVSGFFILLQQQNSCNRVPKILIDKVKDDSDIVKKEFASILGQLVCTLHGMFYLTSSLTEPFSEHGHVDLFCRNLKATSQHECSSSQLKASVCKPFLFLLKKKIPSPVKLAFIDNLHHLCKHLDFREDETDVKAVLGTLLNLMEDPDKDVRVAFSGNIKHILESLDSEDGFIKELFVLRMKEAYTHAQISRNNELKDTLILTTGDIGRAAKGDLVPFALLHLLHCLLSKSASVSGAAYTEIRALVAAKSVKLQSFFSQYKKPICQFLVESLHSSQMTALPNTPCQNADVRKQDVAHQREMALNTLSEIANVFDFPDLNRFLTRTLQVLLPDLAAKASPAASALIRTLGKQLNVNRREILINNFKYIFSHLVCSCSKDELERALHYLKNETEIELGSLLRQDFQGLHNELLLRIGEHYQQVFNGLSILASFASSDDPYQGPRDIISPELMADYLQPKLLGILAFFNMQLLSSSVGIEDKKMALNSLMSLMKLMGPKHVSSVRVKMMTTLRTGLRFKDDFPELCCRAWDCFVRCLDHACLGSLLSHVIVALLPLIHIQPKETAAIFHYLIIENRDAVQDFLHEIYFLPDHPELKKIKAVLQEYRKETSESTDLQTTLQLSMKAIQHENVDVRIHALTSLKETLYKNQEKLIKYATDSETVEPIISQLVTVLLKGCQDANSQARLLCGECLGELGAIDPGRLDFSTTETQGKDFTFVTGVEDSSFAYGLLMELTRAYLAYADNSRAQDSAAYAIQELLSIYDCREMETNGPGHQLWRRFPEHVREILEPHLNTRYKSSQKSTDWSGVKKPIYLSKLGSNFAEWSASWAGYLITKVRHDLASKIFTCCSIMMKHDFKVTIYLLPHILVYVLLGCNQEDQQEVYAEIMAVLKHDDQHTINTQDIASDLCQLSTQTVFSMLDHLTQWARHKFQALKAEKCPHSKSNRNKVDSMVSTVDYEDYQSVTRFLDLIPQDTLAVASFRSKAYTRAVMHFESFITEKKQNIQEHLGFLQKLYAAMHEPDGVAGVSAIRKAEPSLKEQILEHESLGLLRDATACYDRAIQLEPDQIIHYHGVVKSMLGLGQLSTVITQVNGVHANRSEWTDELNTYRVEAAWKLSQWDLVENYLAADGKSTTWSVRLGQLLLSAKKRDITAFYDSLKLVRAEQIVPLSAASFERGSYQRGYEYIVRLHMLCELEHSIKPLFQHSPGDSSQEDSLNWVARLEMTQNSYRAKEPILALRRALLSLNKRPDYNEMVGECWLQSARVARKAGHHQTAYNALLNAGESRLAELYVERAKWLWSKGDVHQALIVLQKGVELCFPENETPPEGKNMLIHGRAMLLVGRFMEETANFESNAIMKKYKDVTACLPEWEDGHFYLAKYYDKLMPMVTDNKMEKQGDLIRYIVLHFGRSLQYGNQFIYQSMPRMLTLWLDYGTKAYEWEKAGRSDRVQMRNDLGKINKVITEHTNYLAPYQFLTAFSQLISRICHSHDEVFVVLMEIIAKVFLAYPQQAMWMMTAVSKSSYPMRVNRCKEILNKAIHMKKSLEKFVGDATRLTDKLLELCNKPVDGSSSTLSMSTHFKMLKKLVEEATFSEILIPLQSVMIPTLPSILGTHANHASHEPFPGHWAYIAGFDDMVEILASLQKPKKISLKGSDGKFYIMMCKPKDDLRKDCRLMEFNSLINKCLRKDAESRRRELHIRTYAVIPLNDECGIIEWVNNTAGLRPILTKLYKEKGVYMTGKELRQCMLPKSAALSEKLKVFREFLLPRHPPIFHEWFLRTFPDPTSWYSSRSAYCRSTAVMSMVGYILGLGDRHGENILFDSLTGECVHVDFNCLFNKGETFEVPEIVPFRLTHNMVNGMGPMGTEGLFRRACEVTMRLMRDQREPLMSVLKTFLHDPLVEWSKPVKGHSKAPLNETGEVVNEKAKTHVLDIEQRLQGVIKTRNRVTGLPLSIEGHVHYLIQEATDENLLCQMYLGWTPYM
T1 sequence (Q8WXE1 whole entry partner): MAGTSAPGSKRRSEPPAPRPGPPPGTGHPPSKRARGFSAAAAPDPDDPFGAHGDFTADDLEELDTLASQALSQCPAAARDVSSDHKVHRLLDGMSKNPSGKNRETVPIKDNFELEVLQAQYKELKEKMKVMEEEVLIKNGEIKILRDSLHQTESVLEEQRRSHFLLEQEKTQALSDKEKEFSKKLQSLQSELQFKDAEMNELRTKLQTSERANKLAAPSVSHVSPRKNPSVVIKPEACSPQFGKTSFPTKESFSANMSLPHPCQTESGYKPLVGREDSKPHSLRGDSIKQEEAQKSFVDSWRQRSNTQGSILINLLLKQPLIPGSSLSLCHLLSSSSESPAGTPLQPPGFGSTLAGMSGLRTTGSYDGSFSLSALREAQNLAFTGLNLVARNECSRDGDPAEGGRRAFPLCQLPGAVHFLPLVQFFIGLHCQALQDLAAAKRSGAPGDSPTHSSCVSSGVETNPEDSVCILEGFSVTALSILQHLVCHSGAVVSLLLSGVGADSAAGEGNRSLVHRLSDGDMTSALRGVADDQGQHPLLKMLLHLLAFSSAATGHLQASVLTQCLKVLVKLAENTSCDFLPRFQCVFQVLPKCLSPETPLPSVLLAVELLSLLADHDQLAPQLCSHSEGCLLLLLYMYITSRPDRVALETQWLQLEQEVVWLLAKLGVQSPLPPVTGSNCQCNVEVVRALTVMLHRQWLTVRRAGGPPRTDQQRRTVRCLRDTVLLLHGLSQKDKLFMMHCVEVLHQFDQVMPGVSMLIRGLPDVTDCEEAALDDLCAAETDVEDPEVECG

SMILES: C[C@@H]1COCCN1c1cc(-c2ccnn2C)c2ncc(-c3ccn[nH]3)n2n1 [Example 2, (R)-3-methyl-4-(8-(1-methyl-1H-pyrazol-5-yl)-3-(1H-pyrazol-5-yl)imidazo[1,2-b]pyridazin-6-yl)morpholine]
inhibitory effect on the proliferation of LoVo cell (in words) [1]: inhibitory effect | inhibitory effect on the proliferation of NCI-H460 cell (in words) [2]: inhibitory effect | IC50 [2]: 907 nM | inhibitory effect on the proliferation of DU145 cell (in words) [3]: inhibitory effect | IC50 [3]: 1220 nM | IC50 [4, 5]: 938 nM

SMILES: CCn1nccc1-c1cc(N2CCOC[C@H]2C)nn2c(-c3ccn[nH]3)cnc12 [Example 3, (R)-3-methyl-4-(8-(1-ethyl-1H-pyrazol-5-yl)-3-(1H-pyrazol-5-yl)imidazo[1,2-b]pyridazin-6-yl)morpholine]
IC50 [2]: 1040 nM | IC50 [3]: 1100 nM

SMILES: CC(C)n1nccc1-c1cc(N2CCOC[C@H]2C)nn2c(-c3ccn[nH]3)cnc12 [Example 4, (R)-3-methyl-4-(8-(1-isopropyl-1H-pyrazol-5-yl)-3-(1H-pyrazol-5-yl)imidazo[1,2-b]pyridazin-6-yl)morpholine]
IC50 [2]: 531 nM | IC50 [3]: 1090 nM

SMILES: Cc1ccc(-c2cc(N3CCOC[C@H]3C)nn3c(-c4ccn[nH]4)cnc23)cn1 [Example 6, (R)-3-methyl-4-(8-(6-methylpyridin-3-yl)-3-(1H-pyrazol-5-yl)imidazo[1,2-b]pyridazin-6-yl)morpholine]
IC50 [2]: 322 nM | IC50 [3]: 914 nM

SMILES: C[C@@H]1COCCN1c1cc(-c2ccc(S(C)(=O)=O)cc2)c2ncc(-c3ccn[nH]3)n2n1 [Example 7, (R)-3-methyl-4-(8-(4-(methylsulfonyl)phenyl)-3-(1H-pyrazol-5-yl)imidazo[1,2-b]pyridazin-6-yl)morpholine]
IC50 [2]: 864 nM | IC50 [3]: 1200 nM

SMILES: C[C@@H]1COCCN1c1cc(-c2ccccc2F)c2ncc(-c3ccn[nH]3)n2n1 [Example 8, (R)-3-methyl-4-(8-(2-fluorophenyl)-3-(1H-pyrazol-5-yl)imidazo[1,2-b]pyridazin-6-yl)morpholine]
IC50 [2]: 409 nM | IC50 [3]: 1110 nM

SMILES: C[C@@H]1COCCN1c1cc(N2CCOCC2)c2ncc(-c3ccn[nH]3)n2n1 [Example 9, (R)-3-methyl-4-(8-morpholino-3-(1H-pyrazol-5-yl)imidazo[1,2-b]pyridazin-6-yl)morpholine]
IC50 [2]: 583 nM | IC50 [3]: 1630 nM

SMILES: C[C@@H]1CN(c2cc(N3CCOC[C@H]3C)nn3c(-c4ccn[nH]4)cnc23)C[C@H](C)O1 [Example 10, (2S,6R)-2,6-dimethyl-4-(6-((R)-3-methylmorpholino)-3-(1H-pyrazol-5-yl)imidazo[1,2-b]pyridazin-8-yl)morpholine]
IC50 [2]: 1110 nM | IC50 [3]: 2300 nM

SMILES: C[C@@H]1COCCN1c1cc(-c2ccnn2C)c2cnc(-c3ccn[nH]3)n2n1 [Example 13, (R)-3-methyl-4-(4-(1-methyl-1H-pyrazol-5-yl)-7-(1H-pyrazol-5-yl)imidazo[1,5-b]pyridazin-2-yl)morpholine]
inhibitory effect on the proliferation of LoVo cell (in words) [1]: good inhibitory effect | IC50 [1]: 53.5 nM | inhibitory effect on the proliferation of NCI-H460 cell (in words) [2]: good inhibitory effect | IC50 [2]: 41.3 nM | inhibitory effect on the proliferation of DU145 cell (in words) [3]: good inhibitory effect | IC50 [3]: 131 nM | inhibitory effect on ATR kinase activity (in words) ([4]; ATR enzyme activity experiment): good inhibitory effect | IC50 [4, 5]: 4 nM

SMILES: C[C@@H]1COCCN1c1cc(-c2ccnn2C)n2ncc(-c3ccn[nH]3)c2n1 [Example 16, (R)-3-methyl-4-(7-(1-methyl-1H-pyrazol-5-yl)-3-(1H-pyrazol-5-yl)pyrazolo[1,5-a]pyrimidin-5-yl)morpholine]
IC50 [2]: 527 nM | IC50 [3]: 1370 nM

Results, then the molecule that gave them:

IC50 [1]: 44.7 nM | IC50 [2]: 30.6 nM | IC50 [4]: 2 nM
SMILES: Cc1ncccc1-c1cc(N2CCOC[C@H]2C)nn2c(-c3ccn[nH]3)ncc12 [Example 42, (R)-3-methyl-4-(4-(2-methylpyridin-3-yl)-7-(1H-pyrazol-5-yl)imidazo[1,5-b]pyridazin-2-yl)morpholine]

IC50 [1]: 23.1 nM | IC50 [2]: 18.2 nM | IC50 [4]: 12 nM
SMILES: C[C@@H]1COCCN1c1cc(-c2ccncc2F)c2cnc(-c3ccn[nH]3)n2n1 [Example 43, (R)-4-(4-(3-fluoropyridin-4-yl)-7-(1H-pyrazol-5-yl)imidazo[1,5-b]pyridazin-2-yl)-3-methylmorpholine]

IC50 [1]: 138 nM | IC50 [2]: 289 nM | inhibition at 0.05 µM ([4]; read-out: Inh %, inhibitory effects on ATR kinase activity at 50 nM): 58%
SMILES: Cc1cc(S(C)(=O)=O)ncc1-c1cc(N2CCOC[C@H]2C)nn2c(-c3ccn[nH]3)ncc12 [Example 44, (R)-3-methyl-4-(4-(4-methyl-6-(methylsulfonyl)pyridin-3-yl)-7-(1H-pyrazol-5-yl)imidazo[1,5-b]pyridazin-2-yl)morpholine]

IC50 [1]: 84.2 nM | IC50 [2]: 78.8 nM | IC50 [4]: 5 nM
SMILES: Cc1ncncc1-c1cc(N2CCOC[C@H]2C)nn2c(-c3ccn[nH]3)ncc12 [Example 45, (R)-3-methyl-4-(4-(4-methylpyrimidin-5-yl)-7-(1H-pyrazol-5-yl)imidazo[1,5-b]pyridazin-2-yl)morpholine]

IC50 [1]: 72.8 nM | IC50 [2]: 77.8 nM | IC50 [4]: 12 nM
SMILES: C[C@@H]1COCCN1c1cc(N2CCOCC2)c2cnc(-c3ccn[nH]3)n2n1 [Example 46, (R)-3-methyl-4-(4-morpholino-7-(1H-pyrazol-5-yl)imidazo[1,5-b]pyridazin-2-yl)morpholine]

IC50 [1]: 20.7 nM | IC50 [2]: 18.2 nM | IC50 [4]: 1 nM
SMILES: C[C@@H]1COCCN1c1cc(-c2cccnc2C(F)(F)F)c2cnc(-c3ccn[nH]3)n2n1 [Example 47, (R)-4-(7-(1H-pyrazol-5-yl)-4-(2-(trifluoromethyl)pyridin-3-yl)imidazo[1,5-b]pyridazin-2-yl)-3-methylmorpholine]

IC50 [1]: 133 nM | IC50 [2]: 156 nM | IC50 [4]: 11 nM
SMILES: Cc1nc(S(C)(=O)=O)ccc1-c1cc(N2CCOC[C@H]2C)nn2c(-c3ccn[nH]3)ncc12 [Example 48, (R)-3-methyl-4-(4-(2-methyl-6-(methylsulfonyl)pyridin-3-yl)-7-(1H-pyrazol-5-yl)imidazo[1,5-b]pyridazin-2-yl)morpholine]

IC50 [1]: 32.9 nM | IC50 [2]: 43 nM | IC50 [4]: 6 nM
SMILES: Cc1cc(S(C)(=O)=O)ccc1-c1cc(N2CCOC[C@H]2C)nn2c(-c3ccn[nH]3)ncc12 [Example 49, (R)-3-methyl-4-(4-(2-methyl-4-(methylsulfonyl)phenyl)-7-(1H-pyrazol-5-yl)imidazo[1,5-b]pyridazin-2-yl)morpholine]

IC50 [1]: 59.9 nM | IC50 [2]: 86.8 nM | IC50 [4]: 16 nM
SMILES: Cc1nc([S+](C)[O-])ccc1-c1cc(N2CCOC[C@H]2C)nn2c(-c3ccn[nH]3)ncc12 (stereo partly drawn) [Example 50, (3R)-3-methyl-4-(4-(2-methyl-6-(methylsulfinyl)pyridin-3-yl)-7-(1H-pyrazol-5-yl)imidazo[1,5-b]pyridazin-2-yl)morpholine]

IC50 [1]: 41.9 nM | IC50 [2]: 26.3 nM | IC50 [4]: 9 nM
SMILES: C[C@@H]1COCCN1c1cc(-c2cccc(C#N)c2)c2cnc(-c3ccn[nH]3)n2n1 [Example 52, (R)-3-(2-(3-methylmorpholino)-7-(1H-pyrazol-5-yl)imidazo[1,5-b]pyridazin-4-yl)benzonitrile]
